Measurements: patent US7417061B2, “Oxadiazole compounds and compositions for delivering active agents” (MHR Institutional Partners IIA LP, priority 1999, dated 2008)

Assay: Oral delivery of rhGH with delivery agent compound in rats; serum rhGH by immunoassay
Format: in vivo, rat
Conditions: male Sprague-Dawley rats, compound 200 mg/kg, rhGH 3 mg/kg, 1 ml/kg, pooled samples (except compound 1)
Protocol: Oral gavage (PO) and/or intracolonic (IC) dosing solutions of delivery agent compound and rhGH in phosphate buffer were prepared. A solution of the compound was made either with the sodium salt of the compound or by converting the free acid to its sodium salt. Typically, a solution of the compound was prepared in phosphate buffer and stirred, adding one equivalent of sodium hydroxide (1.0 N) when making the sodium salt. The final dosing solutions were prepared by mixing the compound solution with an rhGH stock solution (15 mg rhGH/ml) and diluting to the desired volume (usually 3.0 ml). The compounds and rhGH dose amounts are listed below in Table 3.
The typical dosing and sampling protocols were as follows. Male Sprague-Dawley rats weighing between 200-250 g were fasted for 24 hours and administered ketamine (44 mg/kg) and chlorpromazine (1.5 mg/kg) 15 minutes prior to dosing. A dosing group of five rats was administered one of the dosing solutions. For oral gavage (PO), an 11 cm Rusch 8 French catheter was adapted to a 1 ml syringe with a pipette tip. The syringe was filled with dosing solution by drawing the solution through the catheter, which was then wiped dry. The catheter was placed down the esophagus leaving 1 cm of tubing past the rat's incisors. Solution was administered by pressing the syringe plunger. For intracolonic (IC) dosing, a 7.5 cm Rusch catheter tube (French 8 or 6) was adapted to a syringe with an Eppendorf pipette tip. The syringe was filled with the dosing solution by drawing the solution through the catheter tube. The catheter tube was wiped dry. K-Y jelly was applied to the tip, avoiding contact with the eye of the tube, and the tube was inserted into the colon through the anus until the tube was no longer visible. The solution was injected by pressing the syringe plunger, and the tube was removed.
Blood samples were collected serially from the tail artery, typically at 0, 15, 30, 45, 60 and 90 minutes after oral administration and 0, 10, 20, 30, 60 and 90 minutes after IC administration. The five samples from each time period were pooled (except for where compound 1 was dosed). Serum rHGH concentrations were quantified by an rHGH immunoassay test kit (Kit # K1F4015 from Genzyme Corporation Inc., Cambridge, Mass.). Previous studies indicated baseline values of about zero.
The maximum concentration for each group and the area under the curve (AUC), when available, are reported below in Table 3.

Row | Mean Peak Serum [rhGH] | SMILES
1 | 14.64 ng/mL | O=C(O)CCCCCCc1nnc(-c2cc(Cl)ccc2O)o1 [Compound 5]
2 | 0 ng/mL | O=C(O)CCCCCCc1nnc(-c2cc(Cl)cc(Cl)c2O)o1 [Compound 6]
3 | 0 ng/mL | Cc1nnc(CCCCCCC(=O)O)o1 [Compound 12]

Row | SMILES | Mean Peak Serum [rhGH]
4 | COc1ccc(-c2nnc(CCCCC(=O)O)o2)c(O)c1 [Compound 9] | 14.25 ng/mL
